Patent US6610314B2, “Antimicrobial formulations” (Kimberly-Clark Worldwide, Inc., priority 2001, dated 2003)

Key:
[1] = system: Escherichia coli (ATCC 8739); assay: Alamar Blue reduction biocidal assay, 5 minute exposure; assay type: cell-based; details: for IC50: Escherichia coli, ATCC8739, ATCC 8739, 5 min, read-out: 50% Inhibitory Concentration (IC50), E. coli, 50% inhibition of Alamar Blue reduction
Experimental: (§1) In this Example, the antimicrobial efficacy (in terms of IC50 data) of several different formulations against Staphylococcus aureus, Staphylococcus epidermidis, and Escherichia coli was evaluated. The formulations tested comprised a formulation based upon the present invention as well as several other formulations comprised of various organic acids and/or surfactants, as well as surfactants alone. Microorganism Preparation: Lyophilized cultures of Escherichia coli (ATCC 8739), Staphylococcus aureus (ATCC 6538), and Staphylococcus epidermidis (ATCC 12,228) were obtained from the American Type Culture Collection (ATCC) (Rockville, Md.). All three cultures were reconstituted according to ATCC specifications. Aliquots (0.5 mL) of reconstituted 24 hour broth growth were frozen and held at −80° C. until needed. Working cultures were prepared weekly by streaking a loop of frozen culture onto tryptic soy agar plates (TSA) (Becton Dickinson Microbiology Systems, Cockeysville, Md.) and then incubating overnight at 37° C. After incubation, the cultures were held at 4° C. for not more than about 5 days. One day prior to testing, a fresh TSA plate was prepared with a sterile swab to achieve a lawn of growth and incubated at 37° C. for about 24 hours. […] Cell concentrations were determined in triplicate by taking optical density readings of a sample (200 microliters) with a ThermoMax microplate reader spectrophotometer (Molecular Devices) at 650 nm. From a standard curve the appropriate volume of the PBW containing the cells was determined to prepare 1.1×10^9 CFU/mL in the PBW. Exact cell numbers were confirmed by spread plating on TSA and incubating at 37° C. Assay Protocol: To all wells of a Microflour®2 96 well microtiter plate (8 Rows by 12 Columns) (Dynex Technologies, Chantilly, Va.) was added 25 microliters of filtered, sterilized water (Millipore Continental Water Systems, Bedford Mass.). […] After mixing, 25 microliters was transferred from each well in Row A to its corresponding well in Row B to produce a new 50 microliter mixture of sample formulation and water having one half the concentration of sample formulation as that of Row A. The Row B mixtures were aspirated 3 times to thoroughly mix the sample formulation and water combination. These serial dilutions continued down the Rows until reaching Row G (for a total of 6 dilutions from the original plates in Row A). After thorough mixing of Row G well contents, 25 microliters of each well in Row G (a total of 12) was discarded to produce a Row G having 12 columns each containing 25 microliters. […] After serial dilution, bacterial cells were introduced into the wells. […] In columns 4, 5, and 6 of each Row, 25 microliters (about 2.75×10^7 cells) of Staphylococcus epidermidis as prepared above was introduced and mixed. In columns 7, 8, and 9 of each Row, 25 microliters (about 2.75×10^7 cells) of Escherichia coli as prepared above was introduced and mixed. The sample formulations as prepared above were appropriately diluted (if necessary) prior to the introduction of the sample formulations into Row A. The dilutions were made such that, after the sample formulation was introduced into Row A, and after the cells were introduced into Row A (i.e., after reducing the initial concentration of the sample formulation by 50% two times), the initial concentrations were as follows: After the addition of the cells, incubation proceeded (5 minutes) at room temperature. After the incubation period, a 1.6 M phosphate buffer (50 microliters) was added to all wells to neutralize the biocide. Then, 3×Letheen broth (50 microliters) (Difco Laboratories, Detroit, Mich.) and Alamar Blue (25 microliters at room temperature) (AccuMed International, Westlake, Ohio) were added to each well. A positive control was also utilized in the experiment. The positive control consisted of adding sterile Milli-Q water to the wells in place of sample formulation. […]

[2] = system: Staphylococcus epidermidis (ATCC 12,228); assay: as above; assay type: cell-based; details: for IC50: Staphylococcus epidermidis, ATCC12, 5 min, read-out: 50% Inhibitory Concentration (IC50), S. epidermidis, 50% inhibition of Alamar Blue reduction
Experimental: as §1

[3] = system: Staphylococcus aureus (ATCC 6538); assay: as above; assay type: cell-based; details: for IC50: Staphylococcus aureus, ATCC6538, 5 min, read-out: 50% Inhibitory Concentration (IC50), S. aureus, 50% inhibition of Alamar Blue reduction; for IC50 / 50% Inhibitory Concentration (IC50), S. aureus: 5 minutes incubation at room temperature; for 50% Inhibitory Concentration (IC50), S. aureus: 50% inhibition of Alamar Blue reduction
Experimental: as §1

Human stratum corneum = details: tape biopsies soaked 30 minutes at room temperature; against purified water controls; tested in triplicate; Sulfate
Experimental: Skin mildness was evaluated by measuring the damage caused by the biocide on the outer portion of the stratum corneum, and specifically the removal of the lipid component of the stratum corneum.
Human stratum corneum was harvested from adult legs using D-Squame tape biopsies (Cuderm Corporation, Dallas Tex.). Each biopsy harvested consisted of about 7 to 8 pulls from multiple sites on a subject's lower leg. After harvesting, the tapes containing the biopsies were soaked in the test biocide (2 mL) in covered six well tissue cultured dishes for 30 minutes at room temperature. Each biocide formulation was tested in triplicate in adjacent wells.
After soaking the tape strips in the biocide, the tape strips were removed and washed for 3 minutes with cold tap water, and dried at room temperature. After drying, the tape strips containing the biopsies were completely immersed in fushin-toluidine blue dye (Polychrome Multiple Stain, PMS: Delasco, Council Bluff, Iowa.) The immersion continued for 3 minutes after which the tape strips were removed and washed for 3 minutes in cold tap water. After washing, the tape strips were allowed to dry completely at room temperature.
The color of the dried samples was measured by color reflectance using a Minolta CR 5000 (Minolta, Osaka, Japan) spectrophotometer. The color measurements recorded the luminance (L*) and chromaticity through Chroma C* described by the equation (a^*2+b^*2)^½. The color differentials between test materials and controls were calculated according to: [(ΔL*)^2+(ΔC*)^2]^1/2=ΔE*ab. The measurements were taken against controls which were purified water.

[4] = 5 minutes incubation at room temperature
[5] = 50% inhibition of Alamar Blue reduction, 5 minutes incubation at room temperature, listed as #4, sulfate

SMILES | IC50 [1, 4] | IC50 [2, 4] | IC50 [3] | ΔE*ab (color differential of dye-stained stratum corneum biopsies) (Human stratum corneum) | other results
O=C(O)CC(O)C(=O)O (stereo not drawn) [Biocide #2, Malic Acid] | 6000 µg/mL | 240 µg/mL | 1300 µg/mL |  | 
CCCCCCCCCCCCOS(=O)(=O)[O-].[Na+] [Formulation 4, Sodium Dodecyl Sulfate] |  |  |  | 34.41 | 
CCCCCCCCCCCCOS(=O)(=O)[O-].[Na+] [Formulation 6, Sodium Dodecyl Sulfate] |  |  |  | 3.36 | 
CCCCCCCCCCCCOS(=O)(=O)[O-].[Na+] [Formulation 5, Sodium Dodecyl Sulfate] |  |  |  | 20.76 | 
CCCCCCCCCCCCOS(=O)(=O)[O-].[Na+] [Biocide #4, sodium dodecyl sulfate] | ~79000 µg/mL | < 1000 µg/mL |  |  | inhibition in words, E. coli [1]: exhibited inhibition; 50% Inhibitory Concentration (IC50), E. coli [1, 5]: 79500 µg/mL; inhibition in words, S. epidermidis [2]: exhibited inhibition; 50% Inhibitory Concentration (IC50), S. epidermidis [2, 5]: 950 µg/mL; inhibition / biocidal activity in words, S. aureus [3]: exhibited inhibition; 50% Inhibitory Concentration (IC50), S. aureus ([3]; listed as #4, sulfate): 480 µg/mL; 50% Inhibitory Concentration (IC50), S. aureus ([3]; listed as sodium dodecyl sulfate, sulfate): less than 1 g/L
O=C(O)CC(O)(CC(=O)O)C(=O)O [Biocide #1, Citric Acid] | > 6300 µg/mL | 710 µg/mL | 2200 µg/mL |  | 
